Biological target: T1, hKv3.1b (Homo sapiens, UniProt P48547)
T1 construct: expressed in transfected cells
T1 sequence (P48547 1-585 isoform P48547-2): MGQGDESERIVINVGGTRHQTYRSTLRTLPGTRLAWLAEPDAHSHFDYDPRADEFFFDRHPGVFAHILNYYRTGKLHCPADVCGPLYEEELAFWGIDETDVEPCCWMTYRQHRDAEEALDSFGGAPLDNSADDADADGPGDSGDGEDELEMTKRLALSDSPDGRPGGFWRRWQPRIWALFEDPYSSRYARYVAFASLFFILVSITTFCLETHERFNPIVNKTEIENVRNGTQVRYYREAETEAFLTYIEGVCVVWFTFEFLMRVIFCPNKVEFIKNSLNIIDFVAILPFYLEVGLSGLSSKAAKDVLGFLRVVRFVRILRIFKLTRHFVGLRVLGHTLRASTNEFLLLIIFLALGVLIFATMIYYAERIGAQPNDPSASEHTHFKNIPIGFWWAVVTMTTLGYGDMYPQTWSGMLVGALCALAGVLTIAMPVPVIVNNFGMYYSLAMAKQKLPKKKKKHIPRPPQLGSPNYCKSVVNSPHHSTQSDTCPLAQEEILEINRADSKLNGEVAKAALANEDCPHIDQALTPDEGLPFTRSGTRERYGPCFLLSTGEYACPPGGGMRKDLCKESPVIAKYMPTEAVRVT
Assay: QPatch automated whole-cell patch-clamp, shift of voltage threshold for channel activation
Type: cell-based
Settings: HEK-293 cells stably expressing hKv3.1b; for ECdelta5mV: concentration needed to shift the threshold 5 mV, read from fitted concentration response curve; for Max threshold shift: maximum absolute shift of activation threshold to more hyperpolarized potentials at tested concentrations (0.37, 1.11, 3.33, 10, 30 μM)
Method: HEK-293 cells stably expressing hKv3.1b was used for the experiments. Cells were cultured in DMEM medium supplemented with 10% Fetal Bovine Serum, 100 ug/mL Geneticidin and 100 u/mL Penicillin/Streptomycin (all from Gibco). Cells were grown to 80-90% confluency at 37° C. and 5% CO2. On the day of the experiment the cells were detached from the tissue culture flasks by Detachin and resuspended in serum free medium containing 25 mM HEPES and transferred to the cell hotel of the QPatch. The cells were used for experiments 0-5 hours after detachment.
Patch-clamp recordings were performed using the automated recording system QPatch-16× (Sophion Bioscience, Denmark). Cells were centrifuged, SFM removed and the cells were resuspended in extracellular buffer containing (in mM): 145 NaCl, 4 KCl, 1 MgCl2, 2 CaCl2, 10 HEPES and 10 glucose (added fresh on the day of experiment); pH 7.4 adjusted with NaOH, 305 mOsm adjusted with sucrose.
Single cell whole-cell recordings were carried out using an intracellular solution containing (in mM): 120 KCl, 32.25/10 KOH/EGTA, 5.374 CaCl2, 1.75 MgCl2, 10 HEPES, 4 Na2ATP (added fresh on the day), pH 7.2 adjusted with KOH, 395 mOsm adjusted with sucrose. Cell membrane potentials were held at −80 mV and currents were evoked by voltage steps (200 ms duration) from −70 mV to +10 mV (in 10 mV increments). Vehicle (0.33% DMSO) or increasing concentration of compound (1) were applied and the voltage protocol was run 3 times (resulting in 3 min cpd incubation time). Five increasing concentrations of compound (1) were applied to each cell.
Leak subtraction protocol was applied at −33% of the sweep amplitude, and serial resistance values were constantly monitored.
Any cell where serial resistance exceeded 25 MOhm, membrane resistance less than 200 MOhm or current size at −10 mV less than 200 pA was eliminated from the subsequent analysis.
Data analysis was performed using Sophion's QPatch assay software in combination with Microsoft Excel™ (Redmond, Wash., USA).
Current voltage relationships were plotted from the peak current at the individual voltage steps normalized to the vehicle addition at 10 mV. The voltage threshold for channel activation was defined as 5% activation of the peak current at 10 mV in presence of vehicle. The activity of the compounds was described as the ability to shift this current voltage relationship to more hyperpolarized potentials and is given as the maximum absolute shift possible at the tested concentrations (0.37, 1.11, 3.33, 10, 30 μM). Concentration response curves were plotted from the threshold shift at the individual concentrations and were fitted excel fit model 205 sigmodal dose-response model (fit=A+((B−A)/1+((C/x)^D)))), where A is the minimum value, B the maximum value, C the EC50 value and D the slope of the curve. The concentration needed to shift the threshold 5 mV was readout from this curve (ECdelta5 mV).

SMILES | ECdelta5mV [nM] | Max threshold shift [mV]
Cc1ccc(S(=O)(=O)c2ccc(C(=O)NCc3cnc(C)cn3)s2)cc1 [Compound 1, 5-(4-methylbenzene-1-sulfonyl)-N-[(5-methylpyrazin-2-yl)methyl]thiophene-2-carboxamide] | 1200 | 24
Cc1cnc(CNC(=O)c2ccc(S(=O)(=O)c3ccc(Cl)cc3)s2)cn1 [Compound 2, 5-(4-chlorobenzene-1-sulfonyl)-N-[(5-methylpyrazin-2-yl)methyl]thiophene-2-carboxamide] | 1200 | 36
Cc1cnc(CNC(=O)c2ccc(S(=O)(=O)c3ccc(F)cc3)s2)cn1 [Compound 3, 5-(4-fluorobenzene-1-sulfonyl)-N-[(5-methylpyrazin-2-yl)methyl]thiophene-2-carboxamide] | 2200 | 19
Cc1cnc(CNC(=O)c2ccc(S(=O)(=O)c3ccccc3C)s2)cn1 [Compound 4, 5-(2-methylbenzene-1-sulfonyl)-N-[(5-methylpyrazin-2-yl)methyl]thiophene-2-carboxamide] | 1200 | 30
Cc1ccc(S(=O)(=O)c2ccc(C(=O)NCc3ccc(C)nc3)s2)cc1 [Compound 5, 5-(4-methylbenzene-1-sulfonyl)-N-[(6-methylpyridin-3-yl)methyl]thiophene-2-carboxamide] | 2100 | 21
Cc1ccc(S(=O)(=O)c2ccc(C(=O)NCc3ncc(C)cn3)s2)cc1 [Compound 6, 5-(4-methylbenzene-1-sulfonyl)-N-[(5-methylpyrimidin-2-yl)methyl]thiophene-2-carboxamide] | 3100 | 12
Cc1ccc(S(=O)(=O)c2ccc(C(=O)NCc3ccn(C)n3)s2)cc1 [Compound 7, 5-(4-methylbenzene-1-sulfonyl)-N-[(1-methyl-1H-pyrazol-3-yl)methyl]thiophene-2-carboxamide] | 2500 | 17
Cc1ccc(S(=O)(=O)c2ccc(C(=O)NCc3cccnc3)s2)cc1 [Compound 8, 5-(4-methylbenzene-1-sulfonyl)-N-[(pyridin-3-yl)methyl]thiophene-2-carboxamide] | 2900 | 16
Cc1ccc(S(=O)(=O)c2ccc(C(=O)NCc3cnn(C)c3)s2)cc1 [Compound 9, 5-(4-methylbenzene-1-sulfonyl)-N-[(1-methyl-1H-pyrazol-4-yl)methyl]thiophene-2-carboxamide] | 2600 | 17
Cc1ccc(S(=O)(=O)c2ccc(C(=O)NCc3cnccn3)s2)cc1 [Compound 10, 5-(4-methylbenzene-1-sulfonyl)-N-[(pyrazin-2-yl)methyl]thiophene-2-carboxamide] | 1200 | 25
Cc1ccc(S(=O)(=O)c2ccc(C(=O)NCc3nc(C)no3)s2)cc1 [Compound 11, 5-(4-methylbenzene-1-sulfonyl)-N-[(3-methyl-1,2,4-oxadiazol-5-yl)methyl]thiophene-2-carboxamide] | 2500 | 17
Cc1ccc(S(=O)(=O)c2ccc(C(=O)NCc3cc(C)no3)s2)cc1 [Compound 13, 5-(4-methylbenzene-1-sulfonyl)-N-[(3-methyl-1,2-oxazol-5-yl)methyl]thiophene-2-carboxamide] | 2600 | 14
Cc1ccc(S(=O)(=O)c2ccc(C(=O)NCc3ccc(C)nn3)s2)cc1 [Compound 14, 5-(4-methylbenzene-1-sulfonyl)-N-[(6-methylpyridazin-3-yl)methyl]thiophene-2-carboxamide] | 2000 | 22
Cc1ccc(S(=O)(=O)c2ccc(C(=O)NCc3ncn(C)n3)s2)cc1 [Compound 15, 5-(4-methylbenzene-1-sulfonyl)-N-[(1-methyl-1H-1,2,4-triazol-3-yl)methyl]thiophene-2-carboxamide] | 3100 | 20
COc1ccc(S(=O)(=O)c2ccc(C(=O)NCc3cnc(C)cn3)s2)cc1 [Compound 16, 5-(4-methoxybenzene-1-sulfonyl)-N-[(5-methylpyrazin-2-yl)methyl]thiophene-2-carboxamide] | 1500 | 24
Cc1ccc(S(=O)(=O)c2ccc(C(=O)NCc3cnc(C)nc3)s2)cc1 [Compound 17, 5-(4-methylbenzene-1-sulfonyl)-N-[(2-methylpyrimidin-5-yl)methyl]thiophene-2-carboxamide] | 1700 | 24
Cc1cnc(CNC(=O)c2ccc(S(=O)(=O)c3ccccc3)s2)cn1 [Compound 18, 5-(benzenesulfonyl)-N-[(5-methylpyrazin-2-yl)methyl]thiophene-2-carboxamide] | 2400 | 17
Cc1cc(F)ccc1S(=O)(=O)c1ccc(C(=O)NCc2cnccn2)s1 [Compound 19, 5-(4-fluoro-2-methylbenzene-1-sulfonyl)-N-[(pyrazin-2-yl)methyl]thiophene-2-carboxamide] | 3800 | 14
Cc1cnc(CNC(=O)c2ccc(S(=O)(=O)c3ccc(F)cc3C)s2)cn1 [Compound 20, 5-(4-fluoro-2-methylbenzene-1-sulfonyl)-N-[(5-methylpyrazin-2-yl)methyl]thiophene-2-carboxamide] | 1900 | 29
Cc1cnc(CNC(=O)c2ccc(S(=O)(=O)c3ccc(C(F)F)cc3)s2)cn1 [Compound 21, 5-[4-(difluoromethyl)benzene-1-sulfonyl]-N-[(5-methylpyrazin-2-yl)methyl]thiophene-2-carboxamide] | 1700 | 32
Cc1ccc(S(=O)(=O)c2ccc(C(=O)NCc3cnc(C)cn3)o2)cc1 [Compound 22, 5-(4-methylbenzene-1-sulfonyl)-N-[(5-methylpyrazin-2-yl)methyl]furan-2-carboxamide] | 2100 | 27
Cc1ccc(S(=O)(=O)c2ccc(C(=O)NCc3ccn(C)n3)o2)cc1 [Compound 23, 5-(4-methylbenzene-1-sulfonyl)-N-[(1-methyl-1H-pyrazol-3-yl)methyl]furan-2-carboxamide] | 2400 | 17
COc1ccc(S(=O)(=O)c2ccc(C(=O)NCc3cnccn3)o2)cc1 [Compound 24, 5-(4-methoxybenzene-1-sulfonyl)-N-[(pyrazin-2-yl)methyl]furan-2-carboxamide] | 2700 | 20
Cc1ccc(S(=O)(=O)c2ccc(C(=O)NCc3cc(F)ccn3)o2)cc1 [Compound 25, N-[(4-fluoropyridin-2-yl)methyl]-5-(4-methylbenzene-1-sulfonyl)furan-2-carboxamide] | 4100 | 15
